Data published in paper PMC5630639 (Scientific Reports, 2017).

What was measured:
A549 cells = assay: CCK-8 proliferation assay, A549; format: cell-based, human; settings: Homo sapiens, A549; 48 h, CCK-8, mean ± SD
Experimental: (§1) All synthesized β-lactam-azide derivatives were evaluated for their antiproliferative activity against three cancer cell lines (MGC-803, MCF-7, A549) using CCK-8 proliferation assay. The well-known anticancer drug CA-4P was used as a control[36],[37].
(§2) MGC-803 cell line was obtained from the Chinese Academy of Sciences (Shanghai, China). MCF-7 and A549 were from the National Cell Center, China. MGC-803 cells were cultured in DMEM culture medium (DMEM, Biological Industries, Kibbutz Beit Haemek, Israel). A549 and MCF-7 cells were cultured in 1640 medium (1640, Biological Industries, Kibbutz Beit Haemek, Israel). All medium were supplemented with 10% fetal bovine serum, 100 U/ml penicillin (North China Pharmaceutical group Co.), and 100 µg/ml streptomycin (North China Pharmaceutical group Co.). All cells were cultured at 37 °C in a humidified incubator containing 5% CO2.
(§3) Synthesized analogues used in the study were dissolved in 100% cell culture grade DMSO and the final concentration of DMSO as <0.1% for testing on cancer cell lines. Cytotoxicity assays were performed on the human gastric carcinoma cell line MGC-803, the human mammary carcinoma cell line MCF-7, the human lung carcinoma cell line A549. Cells (3500–5000/well) were seeded into 96-well plates in 100 µL of culture medium. The cells were treated in triplicate with a gradient concentration of testing compounds and incubated at 37 °C, 5% CO2 for 48 h. For all cell lines, CCK-8 assay was performed to measure cytotoxic effects. The absorbance was measured using a microplate reader (BioTek Instrument, Inc. Vermont, USA) with a test wavelength of 450 nm. The absorbance levels were corrected against untreated control absorbance values. All experiments were performed in triplicate and SPSS17.0 was used for data analysis to obtain IC50 values.

MGC-803 cells = assay: CCK-8 proliferation assay, MGC-803; format: cell-based, human; settings: Homo sapiens, MGC-803; 48 h, CCK-8, mean ± SD
Experimental: as §1, §2, §3

MCF-7 cells = assay: CCK-8 proliferation assay, MCF-7; format: cell-based, human; settings: Homo sapiens, MCF7; 48 h, CCK-8, mean ± SD
Experimental: as §1, §2, §3

[1] = tested on: three cancer cell lines (MGC-803, MCF-7, A549); assay: CCK-8 proliferation assay, three cancer cell lines together; format: cell-based; settings: Homo sapiens, 48 h, read-out: IC50 values toward three cancer cell lines
Experimental: as §1, §2
Synthesized analogues used in the study were dissolved in 100% cell culture grade DMSO and the final concentration of DMSO as <0.1% for testing on cancer cell lines. […] The absorbance was measured using a microplate reader (BioTek Instrument, Inc. Vermont, USA) with a test wavelength of 450 nm. The absorbance levels were corrected against untreated control absorbance values. […]

bladder cancer cells = tested on: bladder cancer cells; set-up: method as in PMID 18281555; settings: cited from earlier work
tubulin [2] = tested on: tubulin; set-up: method as in PMID 11058036; settings: read-out: anti-tubulin activity IC50; cited from earlier work
tubulin [3] = tested on: tubulin; set-up: method as in PMID 15588080; settings: cited from earlier work

IC50 (A549 cells) | IC50 (MGC-803 cells) | IC50 (MCF-7 cells) | melting point | SMILES | further results
4.2 ± 0.186 µM | 0.251 ± 0.053 µM | 0.154 ± 0.019 µM | – | COc1cc(N2C(=O)[C@H](c3cccs3)[C@H]2c2ccc(N=[N+]=[N-])cc2)cc(OC)c1OC (relative stereo) [Compound 26, trans-4-(4-azidophenyl)-3-(thiophen-2-yl)-1-(3,4,5-trimethoxyphenyl)azetidin-2-one] | IC50 [1]: 154 to 4200 nM
> 20 µM | > 20 µM | > 20 µM | 142 to 145 °C | COc1cc(N2C(=O)[C@@H](c3ccccc3)[C@@H]2c2ccc(-n3cc(COc4cccc([N+](=O)[O-])c4)nn3)cc2)cc(OC)c1OC (relative stereo) [Compound 29, trans-4-(4-(4-((3-nitrophenoxy)methyl)-1H-1,2,3-triazol-1-yl)phenyl)-3-phenyl-1-(3,4,5-trimethoxyphenyl)azetidin-2-one] | –
> 20 µM | > 20 µM | > 20 µM | 90 to 91 °C | COc1ccc([C@@H]2C(=O)N(c3cc(OC)c(OC)c(OC)c3)[C@H]2c2ccc(-n3cc(-c4ccccc4)nn3)cc2)cc1 (relative stereo) [Compound 30, trans-3-(4-methoxyphenyl)-4-(4-(4-phenyl-1H-1,2,3-triazol-1-yl)phenyl)-1-(3,4,5-trimethoxyphenyl)azetidin-2-one] | –
– | – | – | – | COc1cccc(/C=C/C(=O)N=[N+]=[N-])c1OC [Compound 1] | in vitro and in vivo antitumor effect of romidepsin on bladder cancer cells (bladder cancer cells): enhanced
– | – | – | – | COc1cc(/C=C\c2cc(OC)c(OC)c(OC)c2)ccc1N=[N+]=[N-] [Compound 2] | IC50 (tubulin [2]): 5.2 µM
– | – | – | – | CC(=O)OC1C(=O)C2(C)C(O)CC3OCC3(OC(C)=O)C2C(OC(=O)c2ccccc2)C2(O)CC(OC(=O)C(O)C(NC(=O)c3ccccc3)c3ccc(N=[N+]=[N-])cc3)C(C)=C1C2(C)C (stereo not drawn) [Compound 3, 3′-(4-Azidophenyl)-3′-dephenylpaclitaxel] | activity in tubulin assembly and cytotoxicity assays (tubulin [3]): as active as paclitaxel
